In brackets after ≈: the same amount, converted by molar mass. Several values for one entry are separate records, joined by “and”; a condition that tells them apart may be missing. Equal entries are not always repeated. Each block holds one compound with its values, some of them ahead of it.
Assays:
Experiment in all cases: ≥ marks a high value that may be exact or a test limit, other limits are often not marked, values filed in µg/mL are converted to µM
[1] = test system: Fusarium oxysporum KCTC 16909
[2] = test system: Fusarium verticillioides KCTC 6149
[3] = test system: Candida tropicalis KCTC 7221
[4] = test system: Candida albicans KCTC 7270
[5] = test system: Candida krusei CCARM 14017
[6] = test system: Candida parapsilosis CCARM 14016
[7] = test system: Candida albicans ATCC 90028
[8] = test system: Staphylococcus aureus ATCC 6538
[9] = test system: Bacillus subtilis CCT 2576
[10] = test system: Pseudomonas aeruginosa ATCC 27853
[11] = test system: Staphylococcus aureus ATCC 43300
[12] = test system: Klebsiella pneumoniae ATCC 700603
[13] = test system: Acinetobacter baumannii ATCC 19606
[14] = test system: Enterococcus faecium ATCC 35667
[15] = test system: Bacillus megaterium ATCC 13632
[16] = test system: Cryptococcus neoformans ATCC 208821
[17] = test system: Bacillus subtilis ATCC 6051
[18] = test system: Pseudomonas aeruginosa ATCC 15442
[19] = test system: Staphylococcus aureus VRSA1
[20] = test system: Candida tropicalis ATCC 750
[21] = test system: Staphylococcus aureus ATCC 29213
[22] = test system: Streptococcus pneumoniae ATCC 700677
[23] = test system: Escherichia coli LMG 15862
[24] = test system: Klebsiella aerogenes LMG 02094
[25] = test system: Klebsiella pneumoniae LMG 20218
[26] = test system: Acinetobacter baumannii LMG 01041
[27] = test system: Pseudomonas aeruginosa LMG 6395
[28] = test system: Escherichia coli MG1655
[29] = test system: Escherichia coli MG1655 ΔrecA
[30] = test system: Klebsiella aerogenes ATCC 13048
[31] = test system: Shigella dysenteriae CMCC 51252
[32] = test system: Escherichia coli ATCC 25922 ΔsbmA
[33] = test system: Klebsiella pneumoniae CMCC 46117
[34] = test system: Salmonella typhimurium CMCC 50115
[35] = test system: Staphylococcus aureus ATCC 25923
[36] = test system: Klebsiella pneumoniae ATCC 10031
[37] = test system: Salmonella enterica ATCC H9812
[38] = test system: Shigella flexneri CMCC 51572
[39] = test system: Shigella flexneri ATCC 12022
[40] = test system: Bacillus subtilis ATCC 63501
[41] = test system: Escherichia coli K88
[42] = test system: Enterococcus faecalis ATCC 29212
[43] = test system: Escherichia coli NEB5alpha

MIC [1]: 6 µM and 16 µM
MIC [2]: ≥ 64 µM
MIC [3]: 8 µM and 16 µM
MIC [4]: ≥ 64 µM
MIC [5]: ≥ 48 µM and 16 µM
MIC [6]: ≥ 64 µM
SMILES: CC[C@H](C)[C@H](NC(=O)[C@H](C)NC(=O)[C@H](CCC(=O)O)NC(=O)[C@H](Cc1cnc[nH]1)NC(=O)[C@H](CCCCN)NC(=O)CNC(=O)[C@H](CCC(N)=O)NC(=O)[C@H](CCCCN)NC(=O)[C@@H](NC(=O)[C@H](CCCCN)NC(=O)[C@H](CCCCN)NC(=O)[C@H](CC(C)C)NC(=O)[C@H](C)NC(=O)[C@H](CC(N)=O)NC(=O)[C@H](CC(C)C)NC(=O)CN)C(C)C)C(=O)N[C@@H](CCCCN)C(=O)N[C@@H](CC(C)C)C(=O)N[C@H](C(=O)N[C@@H](CC(N)=O)C(=O)N[C@@H](CC(N)=O)C(=O)N[C@@H](Cc1cnc[nH]1)C(=O)N[C@H](C(=O)N[C@@H](CCC(N)=O)C(N)=O)C(C)C)[C@@H](C)CC [GLNALKKVKQGKHEAIKLINNHVQ]

MIC [28]: ≥ 32 µM
MIC [29]: 16 µM (≈ 38.4 µg/mL)
MIC [30]: ≥ 64 µM
SMILES: CC(C)C[C@H](NC(=O)CNC(=O)[C@H](C)NC(=O)[C@H](CCCN=C(N)N)NC(=O)[C@H](Cc1cnc[nH]1)NC(=O)[C@@H](NC(=O)[C@@H](N)CCCN=C(N)N)[C@@H](C)O)C(=O)N[C@@H](CCC(N)=O)C(=O)N[C@@H](Cc1ccccc1)C(=O)N1CCC[C@H]1C(=O)N[C@H](C(=O)NCC(=O)N[C@@H](CCCN=C(N)N)C(=O)N[C@H](C(=O)N[C@@H](Cc1cnc[nH]1)C(=O)N[C@@H](CCCN=C(N)N)C(=O)N[C@@H](CC(C)C)C(=O)N[C@@H](CC(C)C)C(=O)N[C@@H](CCCN=C(N)N)C(=O)N[C@@H](CCCCN)C(N)=O)C(C)C)C(C)C [RTHRAGLQFPVGRVHRLLRK]

MIC [43]: ≥ 500 µM
MIC [17]: ≥ 500 µM
SMILES: CC[C@H](C)[C@H](NC(=O)[C@H](C)NC(=O)CNC(=O)[C@H](CCCCN)NC(=O)[C@H](CCC(=O)O)NC(=O)[C@H](CCC(=O)O)NC(=O)[C@H](CC(=O)O)NC(=O)[C@H](CCC(=O)O)NC(=O)[C@H](CC(=O)O)NC(=O)[C@H](CCCN=C(N)N)NC(=O)CNC(=O)[C@H](CCC(N)=O)NC(=O)[C@H](CC(C)C)NC(=O)[C@H](CCCCN)NC(=O)[C@H](CC(=O)O)NC(=O)[C@@H](NC(=O)[C@@H](NC(=O)[C@H](Cc1cnc[nH]1)NC(=O)[C@H](CCCN=C(N)N)NC(=O)[C@H](CC(N)=O)NC(=O)[C@@H](N)C(C)C)[C@@H](C)CC)C(C)C)C(=O)N[C@H](C(=O)N[C@@H](CCCCN)C(=O)N[C@H](C(=O)N[C@@H](CCCCN)C(=O)NCC(=O)NCC(=O)N[C@@H](CC(C)C)C(=O)O)C(C)C)C(C)C [VNRHIVDKLQGRDEDEEKGAIVKVKGGL]

The remaining lines, values behind:

SMILES: CC[C@H](C)[C@H](N)C(=O)N[C@@H](CC(N)=O)C(=O)N[C@@H](Cc1c[nH]c2ccccc12)C(=O)N[C@@H](CC(C)C)C(=O)N[C@@H](CCCCN)C(=O)N[C@@H](CC(C)C)C(=O)NCC(=O)N[C@@H](CCCCN)C(=O)N[C@@H](C)C(=O)N[C@H](C(=O)N[C@H](C(=O)N[C@@H](CC(=O)O)C(=O)N[C@@H](C)C(=O)N[C@@H](CC(C)C)C(N)=O)[C@@H](C)CC)[C@@H](C)CC [INWLKLGKAIIDAL]
MIC [7]: 7.22 µM (≈ 11.3 µg/mL)
MIC [8]: 122 µM (≈ 191 µg/mL)
MIC [9]: ≥ 151 µM
MIC [10]: 115 µM (≈ 181 µg/mL)
MIC [11]: 5.1 µM (≈ 8 µg/mL)
MIC [12]: 81.6 µM (≈ 128 µg/mL)
MIC [13]: 5.1 µM (≈ 8 µg/mL)
MIC [14]: 3.61 µM (≈ 5.65 µg/mL)
MIC [15]: 2.55 µM (≈ 4 µg/mL)
MIC [16]: 2.55 µM (≈ 4 µg/mL)
MIC [17]: 2.55 µM (≈ 4 µg/mL)
MIC [18]: ≥ 164 µM
MIC [19]: 3.61 µM (≈ 5.65 µg/mL)
MIC [20]: 1.28 µM (≈ 2 µg/mL)
MIC [21]: 5.1 µM (≈ 8 µg/mL)
MIC [22]: 5.1 µM (≈ 8 µg/mL)

SMILES: CC[C@H](C)[C@H](NC(=O)[C@H](CCCN=C(N)N)NC(=O)[C@H](CCC(N)=O)NC(=O)[C@@H](NC(=O)[C@@H](NC(=O)[C@@H](N)CCCN=C(N)N)[C@@H](C)CC)C(C)C)C(=O)N[C@@H](CCCCN)C(=O)N[C@@H](CCCCN)C(=O)N[C@@H](Cc1c[nH]c2ccccc12)C(=O)N[C@@H](CC(C)C)C(N)=O [RIVQRIKKWL]
MIC [23]: ≥ 32 µM
MIC [24]: ≥ 256 µM
MIC [25]: ≥ 64 µM
MIC [26]: ≥ 128 µM
MIC [27]: 16 µM (≈ 21.4 µg/mL)

SMILES: CC[C@H](C)[C@H](NC(=O)[C@@H]1CCCN1C(=O)[C@H](CCCN=C(N)N)NC(=O)[C@@H]1CCCN1C(=O)[C@H](CCCN=C(N)N)NC(=O)[C@@H]1CCCN1C(=O)[C@H](CC(C)C)NC(=O)[C@H](Cc1ccc(O)cc1)NC(=O)[C@@H]1CCCN1C(=O)[C@@H]1CCCN1C(=O)[C@H](CCCCN)NC(=O)[C@H](CC(=O)O)NC(=O)[C@@H](N)C(C)C)C(=O)N[C@@H](CCCN=C(N)N)C(=O)N[C@@H](CCCN=C(N)N)C(=O)N1CCC[C@H]1C(=O)NCC(=O)NCC(=O)N[C@@H](CCCN=C(N)N)C(N)=O [VDKPPYLPRPRPIRRPGGR]
MIC [31]: 4 µM and 2 µM
MIC [32]: ≥ 256 µM
MIC [33]: ≥ 256 µM
MIC [34]: 1 µM and 2 µM
MIC [35]: > 512 µM
MIC [36]: ≥ 256 µM
MIC [37]: 2 µM (≈ 4.45 µg/mL)
MIC [38]: 2 µM (≈ 4.45 µg/mL)
MIC [39]: 1 µM (≈ 2.23 µg/mL)
MIC [40]: ≥ 512 µM
MIC [41]: 2 µM (≈ 4.45 µg/mL)
MIC [42]: > 512 µM
